Consider 20 compounds from US20240246964A1 (Arbutus Biopharma Corporation, priority 2021, published 2024).

One assay deals with human PD-L1 (Homo sapiens (Human), UniProt Q9NZQ7). Nature of the assay: T cell activation luciferase reporter cell culture system (T Cell Activation Assay). It is filed as cell-based. As to conditions: luciferase reporter assay; PD-L1 aAPC/CHO-K1 cells with PD-1 effector Jurkat T cells.
The target in assay [1] is PD-L1 His protein / PD-1 Fc protein (Homo sapiens (Human), UniProt Q9NZQ7). Briefly: HTRF Assay (PD-1/PD-L1 interaction). It is filed as binding. As to conditions: PD-L1 His 6 nM, PD-1 Fc 6 nM.
PD-L1 His protein / PD-1 Fc protein, sequence (Q9NZQ7 19-238): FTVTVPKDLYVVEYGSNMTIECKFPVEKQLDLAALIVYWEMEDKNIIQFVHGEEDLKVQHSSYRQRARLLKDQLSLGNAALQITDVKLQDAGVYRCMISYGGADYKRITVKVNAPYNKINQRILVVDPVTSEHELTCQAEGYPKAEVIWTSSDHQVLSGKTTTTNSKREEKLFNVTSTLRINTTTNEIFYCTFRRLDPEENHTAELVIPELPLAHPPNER

human PD-L1, sequence (Q9NZQ7 19-290): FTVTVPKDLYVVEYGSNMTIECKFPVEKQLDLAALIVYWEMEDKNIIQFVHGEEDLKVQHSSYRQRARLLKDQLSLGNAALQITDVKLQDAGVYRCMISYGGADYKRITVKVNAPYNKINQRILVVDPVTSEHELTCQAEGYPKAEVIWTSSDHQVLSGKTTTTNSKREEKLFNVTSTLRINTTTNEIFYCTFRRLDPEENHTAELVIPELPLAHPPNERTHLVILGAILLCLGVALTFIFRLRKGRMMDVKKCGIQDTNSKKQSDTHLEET

Compound `COc1nc(-c2cccc(-c3ccnc(-c4ccc5c(c4)N(C)CCN(C[C@H](C)O)C5)c3Cl)c2Cl)ccc1CNC[C@@H]1CCC(=O)N1` [Compound 24, (S)-5-((((6-(2-chloro-3-(3-chloro-2-(4-((S)-2-hydroxypropyl)-1-methyl-2,3,4,5-tetrahydro-1H-benzo[e][1,4]diazepin-8-yl)pyridin-4-yl)phenyl)-2-methoxypyridin-3-yl)methyl)amino)methyl)pyrrolidin-2-one] gave an EC50 on human PD-L1 of 87.2 nM. In addition, the 50% inhibitory concentration (IC50) in assay [1] stood at 0.8 nM.
The like results for `COc1nc(-c2cccc(-c3ccnc(-c4ccc5c(c4)OCCN(C[C@H](C)O)C5)c3Cl)c2Cl)ccc1CNC[C@@H]1CCC(=O)N1` [Compound 25, (S)-5-((((6-(2-chloro-3-(3-chloro-2-(4-((S)-2-hydroxypropyl)-2,3,4,5-tetrahydrobenzo[f][1,4]oxazepin-8-yl)pyridin-4-yl)phenyl)-2-methoxypyridin-3-yl)methyl)amino)methyl)pyrrolidin-2-one] were, in that order, 334 nM and 0.5 nM.
On the same counts, the results for `COc1nc(-c2cccc(-c3ccnc(-c4ccc5c(c4)OCCNC5)c3Cl)c2Cl)ccc1CNC[C@@H]1CCC(=O)N1` [Compound 26, (S)-5-((((6-(2-chloro-3-(3-chloro-2-(2,3,4,5-tetrahydrobenzo[f][1,4]oxazepin-8-yl)pyridin-4-yl)phenyl)-2-methoxypyridin-3-yl)methyl)amino)methyl)pyrrolidin-2-one] are 77.3 nM and 0.2 nM.
On the same counts, the results for `COc1nc(-c2cccc(-c3ccnc(-c4ccc5c(CNC6CCN(C(C)=O)CC6)cn(C)c5c4)c3Cl)c2Cl)ccc1CNC[C@@H]1CCC(=O)N1` [Compound 28, (S)-5-((((6-(3-(2-(3-(((1-acetylpiperidin-4-yl)amino)methyl)-1-methyl-1H-indol-6-yl)-3-chloropyridin-4-yl)-2-chlorophenyl)-2-methoxypyridin-3-yl)methyl)amino)methyl)pyrrolidin-2-one] are 48.4 nM and 1.2 nM.
In turn, `COc1nc(-c2cccc(-c3ccnc(-c4ccc5c(CNCCO)cn(C)c5c4)c3Cl)c2Cl)ccc1CNC[C@@H]1CCC(=O)N1` [Compound 29, (S)-5-((((6-(2-chloro-3-(3-chloro-2-(3-(((2-hydroxyethyl)amino)methyl)-1-methyl-1H-indol-6-yl)pyridin-4-yl)phenyl)-2-methoxypyridin-3-yl)methyl)amino)methyl)pyrrolidin-2-one] showed an EC50 at human PD-L1 of 94 nM. Also, the IC50 in assay [1] amounted to 1.1 nM.
On the same counts, the results for `COCCNCc1cn(C)c2cc(-c3nccc(-c4cccc(-c5ccc(CNC[C@@H]6CCC(=O)N6)c(OC)n5)c4Cl)c3Cl)ccc12` [Compound 30, (S)-5-((((6-(2-chloro-3-(3-chloro-2-(3-(((2-methoxyethyl)amino)methyl)-1-methyl-1H-indol-6-yl)pyridin-4-yl)phenyl)-2-methoxypyridin-3-yl)methyl)amino)methyl)pyrrolidin-2-one] are 100 nM and 15.4 nM.
On the same counts, the results for `CNCc1cn(C)c2cc(-c3nccc(-c4cccc(-c5ccc(CNC[C@@H]6CCC(=O)N6)c(OC)n5)c4Cl)c3Cl)ccc12` [Compound 31, (S)-5-((((6-(2-chloro-3-(3-chloro-2-(1-methyl-3-((methylamino)methyl)-1H-indol-6-yl)pyridin-4-yl)phenyl)-2-methoxypyridin-3-yl)methyl)amino)methyl)pyrrolidin-2-one] are 134 nM and 0.3 nM.
On the same counts, the results for `CCNCc1cn(C)c2cc(-c3nccc(-c4cccc(-c5ccc(CNC[C@@H]6CCC(=O)N6)c(OC)n5)c4Cl)c3Cl)ccc12` [Compound 32, (S)-5-((((6-(2-chloro-3-(3-chloro-2-(3-((ethylamino)methyl)-1-methyl-1H-indol-6-yl)pyridin-4-yl)phenyl)-2-methoxypyridin-3-yl)methyl)amino)methyl)pyrrolidin-2-one] are 261 nM and 0.7 nM.
Compound `COc1nc(-c2cccc(-c3ccnc(-c4ccc5c(CN(C)C)cn(C)c5c4)c3Cl)c2Cl)ccc1CNC[C@@H]1CCC(=O)N1` [Compound 33, (S)-5-((((6-(2-chloro-3-(3-chloro-2-(3-((dimethylamino)methyl)-1-methyl-1H-indol-6-yl)pyridin-4-yl)phenyl)-2-methoxypyridin-3-yl)methyl)amino)methyl)pyrrolidin-2-one] yielded an EC50 on human PD-L1 of 224 nM. The same compound came in with an IC50 in assay [1] of 0.4 nM.
The compound `COc1nc(-c2cccc(-c3ccnc(-c4ccc5c(CNC[C@@H]6CCO6)cn(C)c5c4)c3Cl)c2Cl)ccc1CNC[C@@H]1CCC(=O)N1` [Compound 34, (S)-5-((((6-(2-chloro-3-(3-chloro-2-(1-methyl-3-(((((S)-oxetan-2-yl)methyl)amino)methyl)-1H-indol-6-yl)pyridin-4-yl)phenyl)-2-methoxypyridin-3-yl)methyl)amino)methyl)pyrrolidin-2-one] registered an EC50 at human PD-L1 of 122 nM. The same compound displayed an IC50 in assay [1] of 72.1 nM.
The like results for `COc1nc(-c2cccc(-c3ccnc(-c4ccc5c(CNC[C@H](C)O)cn(C)c5c4)c3Cl)c2Cl)ccc1CNC[C@@H]1CCC(=O)N1` [Compound 35, (S)-5-((((6-(2-chloro-3-(3-chloro-2-(3-((((S)-2-hydroxypropyl)amino)methyl)-1-methyl-1H-indol-6-yl)pyridin-4-yl)phenyl)-2-methoxypyridin-3-yl)methyl)amino)methyl)pyrrolidin-2-one] were, in that order, 855 nM and 1.1 nM.
On the same counts, the results for `COc1nc(-c2cccc(-c3ccnc(-c4ccc5c(CNCC(C)(C)O)cn(C)c5c4)c3Cl)c2Cl)ccc1CNC[C@@H]1CCC(=O)N1` [Compound 36, (S)-5-((((6-(2-chloro-3-(3-chloro-2-(3-(((2-hydroxy-2-methylpropyl)amino)methyl)-1-methyl-1H-indol-6-yl)pyridin-4-yl)phenyl)-2-methoxypyridin-3-yl)methyl)amino)methyl)pyrrolidin-2-one] are 82.1 nM and 3.4 nM.
`COc1nc(-c2cccc(-c3ccnc(-c4ccc5c(CNCC(C)C)cn(C)c5c4)c3Cl)c2Cl)ccc1CNC[C@@H]1CCC(=O)N1` [Compound 38, (S)-5-((((6-(2-chloro-3-(3-chloro-2-(3-((isobutylamino)methyl)-1-methyl-1H-indol-6-yl)pyridin-4-yl)phenyl)-2-methoxypyridin-3-yl)methyl)amino)methyl)pyrrolidin-2-one]: on human PD-L1, the response was half-maximal at 369 nM (EC50). Moreover, half-maximal inhibition in assay [1] (IC50) required 116 nM.
In turn, `COc1nc(-c2cccc(-c3ccnc(-c4ccc5c(CN(C)CCO)cn(C)c5c4)c3Cl)c2Cl)ccc1CNC[C@@H]1CCC(=O)N1` [Compound 39, (S)-5-((((6-(2-chloro-3-(3-chloro-2-(3-(((2-hydroxyethyl)(methyl)amino)methyl)-1-methyl-1H-indol-6-yl)pyridin-4-yl)phenyl)-2-methoxypyridin-3-yl)methyl)amino)methyl)pyrrolidin-2-one] registered an EC50 at human PD-L1 of 61.8 nM. The compound also showed an IC50 in assay [1] of 1 nM.
On the same counts, the results for `COc1nc(-c2cccc(-c3ccnc(-c4ccc5c(CNC[C@H](C)OC)cn(C)c5c4)c3Cl)c2Cl)ccc1CNC[C@@H]1CCC(=O)N1` [Compound 40, (S)-5-((((6-(2-chloro-3-(3-chloro-2-(3-((((S)-2-methoxypropyl)amino)methyl)-1-methyl-1H-indol-6-yl)pyridin-4-yl)phenyl)-2-methoxypyridin-3-yl)methyl)amino)methyl)pyrrolidin-2-one] are 4150 nM and 10.3 nM.
On the same counts, the results for `COc1nc(-c2cccc(-c3ccnc(-c4ccc5c(CNC[C@@H]6CCCO6)cn(C)c5c4)c3Cl)c2Cl)ccc1CNC[C@@H]1CCC(=O)N1` [Compound 41, (S)-5-((((6-(2-chloro-3-(3-chloro-2-(1-methyl-3-(((((S)-tetrahydrofuran-2-yl)methyl)amino)methyl)-1H-indol-6-yl)pyridin-4-yl)phenyl)-2-methoxypyridin-3-yl)methyl)amino)methyl)pyrrolidin-2-one] are 164 nM and 33.9 nM.
The like results for `COc1nc(-c2cccc(-c3ccnc(-c4ccc5c(CNC6CCOCC6)cn(C)c5c4)c3Cl)c2Cl)ccc1CNC[C@@H]1CCC(=O)N1` [Compound 42, (S)-5-((((6-(2-chloro-3-(3-chloro-2-(1-methyl-3-(((tetrahydro-2H-pyran-4-yl)amino)methyl)-1H-indol-6-yl)pyridin-4-yl)phenyl)-2-methoxypyridin-3-yl)methyl)amino)methyl)pyrrolidin-2-one] were, in that order, 88.6 nM and 0.1 nM.
Take `COc1nc(-c2cccc(-c3ccnc(-c4ccc5c(CNC6CCS(=O)(=O)CC6)cn(C)c5c4)c3Cl)c2Cl)ccc1CNC[C@@H]1CCC(=O)N1` [Compound 43, (S)-5-((((6-(2-chloro-3-(3-chloro-2-(3-(((1,1-dioxidotetrahydro-2H-thiopyran-4-yl)amino)methyl)-1-methyl-1H-indol-6-yl)pyridin-4-yl)phenyl)-2-methoxypyridin-3-yl)methyl)amino)methyl)pyrrolidin-2-one]: the EC50 at human PD-L1 was found to be 62.5 nM. The concentration for half-maximal inhibition (IC50) in assay [1] came to 0.2 nM.
On the same counts, the results for `COc1nc(-c2cccc(-c3ccnc(-c4cc5c(=O)n(C)c(CN6CC7(CC(O)C7)C6)nn5c4)c3Cl)c2Cl)ccc1CNC[C@@H]1CCC(=O)N1` [Compound 48, (S)-6-(3-chloro-4-(2-chloro-3-(6-methoxy-5-((((5-oxopyrrolidin-2-yl)methyl)amino)methyl)pyridin-2-yl)phenyl)pyridin-2-yl)-2-((6-hydroxy-2-azaspiro[3.3]heptan-2-yl)methyl)-3-methylpyrrolo[2,1-f][1,2,4]triazin-4(3H)-one] are 18.7 nM and 0.04 nM.
On the same counts, the results for `COc1nc(-c2cccc(-c3ccnc(-c4cnc5cc(CNC[C@@H]6CCC(=O)N6)ccc5c4)c3Cl)c2Cl)ccc1CNC[C@@H]1CCC(=O)N1` [Compound 52, (S)-5-((((6-(2-chloro-3-(3-chloro-2-(7-(((((S)-5-oxopyrrolidin-2-yl)methyl)amino)methyl)quinolin-3-yl)pyridin-4-yl)phenyl)-2-methoxypyridin-3-yl)methyl)amino)methyl)pyrrolidin-2-one] are 127 nM and 0.2 nM.
